According to US11053204B2, “Pyrimidinyloxy benzene derivatives as herbicides” (FMC Corporation, priority 2015, dated 2021):

Legend:
Format in all cases: in vivo
[1] = test system: giant foxtail (Setaria faberii); assay: Test A postemergence, visual injury rating
Method in brief: (§1)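 Pre- and postemergence greenhouse screen. Soil: loam + sand. Spray carrier: solvent mixture, non-phytotoxic, with surfactant. Post timing at 1–2 leaves, height 2–10 cm. Readout: visual injury on a 0–100 scale roughly 10 days after application, untreated plants as reference.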

[2] = test system: wheat (Triticum aestivum); assay: Test A postemergence, visual injury rating
Method in brief: as §1

[3] = test system: barnyardgrass (Echinochloa crus-galli); assay: Test A postemergence, visual injury rating; settings: 0 to 100 scale, 0 is no effect, 100 is complete control, approximately 10 days
Method in brief: as §1

[4] = test system: blackgrass (Alopecurus myosuroides); assay: Test A postemergence, visual injury rating
Method in brief: as §1

[5] = test system: Italian ryegrass (Lolium multiflorum); assay: Test A postemergence, visual injury rating
Method in brief: as §1

corn (Zea mays) = assay: Test A postemergence, visual injury rating
Method in brief: as §1

[6] = test system: galium (catchweed bedstraw, Galium aparine); assay: Test A postemergence, visual injury rating
Method in brief: as §1

[7] = test system: ragweed (common ragweed, Ambrosia elatior); assay: Test A postemergence, visual injury rating
Method in brief: as §1

kochia (Kochia scoparia) = assay: Test A postemergence, visual injury rating
Method in brief: as §1

[8] = test system: pigweed (Amaranthus retroflexus); assay: Test A postemergence, visual injury rating
Method in brief: as §1

[9] = test system: ryegrass, Italian (Italian ryegrass, Lolium multiflorum); assay: Test C postemergence, plant response rating; settings: for Ryegrass, Italian plant response rating: scale 0 to 100 (0 no effect, 100 complete control)
Method in brief: (§2)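 Both timings shared one formulation, a non-phytotoxic solvent mixture with surfactant, and a greenhouse period of 13 to 15 d. Preemergence used seeded loam/sand or silt loam soil, postemergence used 2 to 18 cm plants; visual ratings ran from 0 (no effect) to 100 (complete control).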

[10] = test system: foxtail, giant (giant foxtail, Setaria faberii); assay: Test C postemergence, plant response rating; settings: for Foxtail, Giant plant response rating: scale 0 to 100 (0 no effect, 100 complete control)
Method in brief: as §2

[11] = test system: oat, wild (wild oat Avena fatua); assay: Test C postemergence, plant response rating; settings: for Oat, Wild plant response rating: scale 0 to 100 (0 no effect, 100 complete control)
Method in brief: as §2

[12] = test system: ragweed (common ragweed, Ambrosia elatior); assay: Test C postemergence, plant response rating; settings: for Ragweed plant response rating: scale 0 to 100 (0 no effect, 100 complete control)
Method in brief: as §2

[13] = test system: velvetleaf (Abutilon theophrasti); assay: Test C postemergence, plant response rating
Method in brief: as §2

[14] = test system: waterhemp (common waterhemp, Amaranthus rudis); assay: Test C postemergence, plant response rating
Method in brief: as §2

[15] = test system: chickweed (common chickweed, Stellaria media); assay: Test C postemergence, plant response rating; settings: for Chickweed plant response rating: scale 0 to 100 (0 no effect, 100 complete control)
Method in brief: as §2

soybean (Glycine max) = assay: Test C postemergence, plant response rating; settings: for Soybean plant response rating: scale 0 to 100 (0 no effect, 100 complete control)
Method in brief: as §2

[16] = test system: lambsquarters (Chenopodium album); assay: Test C postemergence, plant response rating; settings: for Lambsquarters plant response rating: scale 0 to 100 (0 no effect, 100 complete control)
Method in brief: as §2

[17] = 31 g ai/ha, 0 to 100 scale (0 no effect, 100 complete control)
[18] = 125 g ai/ha, 0 to 100 scale, 0 is no effect, 100 is complete control, approximately 10 days
[19] = 125 g ai/ha, scale 0 to 100 (0 no effect, 100 complete control)

## FC(F)(F)CCCCc1c(Cl)cccc1Oc1ncc(Cl)cn1 [Compound 137]
[1]; [17]
  Foxtail, Giant plant response rating: 10
[1]; [18]
  Foxtail, Giant plant response rating: 60
[2]; [17]
  Wheat plant response rating: 0
[2]; [18]
  Wheat plant response rating: 10
[3]; 31 g ai/ha
  Barnyardgrass plant response rating: 20
[3]; 125 g ai/ha
  Barnyardgrass plant response rating: 60
[4]; [17]
  Blackgrass plant response rating: 10
[4]; [18]
  Blackgrass plant response rating: 30
[5]; [17]
  Ryegrass, Italian plant response rating: 10
[5]; [18]
  Ryegrass, Italian plant response rating: 30
Corn (Zea mays); [17]
  Corn plant response rating: 10
Corn (Zea mays); [18]
  Corn plant response rating: 10
[6]; [17]
  Galium plant response rating: 40
[6]; [18]
  Galium plant response rating: 100
[7]; [17]
  Ragweed plant response rating: 10
[7]; [18]
  Ragweed plant response rating: 40
Kochia (Kochia scoparia); [17]
  Kochia plant response rating: 90
Kochia (Kochia scoparia); [18]
  Kochia plant response rating: 100
[8]; [17]
  Pigweed plant response rating: 80
[8]; [18]
  Pigweed plant response rating: 100
[9]; 16 g ai/ha, scale of 0 to 100
  Plant response rating, Ryegrass, Italian: 5
[9]; 31 g ai/ha, scale 0 to 100
  Plant response rating, Ryegrass, Italian: 5
[9]; 62 g ai/ha
  Ryegrass, Italian plant response rating: 5
[9]; 125 g ai/ha
  Ryegrass, Italian plant response rating: 10
[10]; 16 g ai/ha, scale of 0 to 100
  Plant response rating, Foxtail, Giant: 20
[10]; 31 g ai/ha, scale 0 to 100
  Plant response rating, Foxtail, Giant: 20
[10]; 62 g ai/ha
  Foxtail, Giant plant response rating: 40
[10]; 125 g ai/ha
  Foxtail, Giant plant response rating: 35
[11]; 16 g ai/ha, scale of 0 to 100
  Plant response rating, Oat, Wild: 5
[11]; 31 g ai/ha, scale 0 to 100
  Plant response rating, Oat, Wild: 10
[11]; 62 g ai/ha
  Oat, Wild plant response rating: 10
[11]; 125 g ai/ha
  Oat, Wild plant response rating: 10
[12]; 16 g ai/ha, scale of 0 to 100
  Plant response rating, Ragweed: 20
[12]; 31 g ai/ha, scale 0 to 100
  Plant response rating, Ragweed: 35
[12]; 62 g ai/ha
  Ragweed plant response rating: 30
[12]; 125 g ai/ha
  Ragweed plant response rating: 30
[13]; 16 g ai/ha, scale of 0 to 100
  Plant response rating, Velvetleaf: 10
[13]; 31 g ai/ha, scale 0 to 100
  Plant response rating, Velvetleaf: 15
[13]; [19]
  Velvetleaf plant response rating: 70
[14]; 16 g ai/ha, scale of 0 to 100
  Plant response rating, Waterhemp: 40
[14]; 31 g ai/ha, scale 0 to 100
  Plant response rating, Waterhemp: 60
[14]; [19]
  Waterhemp plant response rating: 75
[15]; 16 g ai/ha, scale of 0 to 100
  Plant response rating, Chickweed: 70
[15]; 31 g ai/ha, scale 0 to 100
  Plant response rating, Chickweed: 55
[15]; 62 g ai/ha
  Chickweed plant response rating: 90
[15]; 125 g ai/ha
  Chickweed plant response rating: 100
Soybean (Glycine max); 16 g ai/ha, scale of 0 to 100
  Plant response rating, Soybean: 20
Soybean (Glycine max); 31 g ai/ha, scale 0 to 100
  Plant response rating, Soybean: 30
Soybean (Glycine max); 62 g ai/ha
  Soybean plant response rating: 45
Soybean (Glycine max); 125 g ai/ha
  Soybean plant response rating: 40
[16]; 16 g ai/ha, scale of 0 to 100
  Plant response rating, Lambsquarters: 55
[16]; 31 g ai/ha, scale 0 to 100
  Plant response rating, Lambsquarters: 75
[16]; 62 g ai/ha
  Lambsquarters plant response rating: 85
[16]; 125 g ai/ha
  Lambsquarters plant response rating: 90
